Data taken from patent US20170296616A1, “METHODS OF TREATING DEPRESSION USING NMDA MODULATORS” (Naurex, Inc., priority 2014, published 2017).
Residues, ends and D or L forms follow the SMILES beside them.

Key:
[1] = tested on: patients suffering with refractory depression; conditions: cited from earlier work; for change in Hamilton Depression Rating Score: patients with refractory depression; for side effects: reported for the NMDAR antagonists
[2] = cited from earlier work
[3] = tested on: subjects with MDD that had responded inadequately to another antidepressant agent; assay: Repeat dose study of adjunctive GLYX-13 in human subjects (randomized withdrawal design); format: in vivo; conditions: for reduction of CGI-I score: baseline 4.3-4.6
Procedure: A repeat dose study was conducted on human subjects using adjunctive dosing (patients were currently taking another antidepressant medication). Dose levels of 5 mg/kg and 10 mg/kg were used with weekly or biweekly dose during an initial, stabilization period, as shown in FIGS. 7A and 7B (showing typical design of randomized withdrawal maintenance study). The disposition of the subjects, as indicated in FIGS. 7A and 7B was 144 nonresponders and […], where of the responders (70 patients assigned to weekly dosing, 36 patients assigned to biweekly dosing, 55 patients randomized to placebo). […] The study was blinded to third party raters (HDRS-17) and to clinicians of the treatment group (CGI-S).
Methods. GLYX-13 was administered over 12 weeks to subjects who had responded inadequately to another antidepressant agent. Subjects continued taking the other antidepressant during the entire course of the study. The study was divided into 3 parts. During the first 6 weeks, subjects were randomized to receive GLYX-13 at 5 mg/kg IV or 10 mg/kg IV. Subjects returned to the clinic weekly. If subjects had reached clinical response (HDRS-17 reduced ≧50% from baseline) to GLYX-13 administered the previous week, placebo was administered weekly until relapse (HDRS-17 reduced <50% from baseline). At the 6th week of evaluation, subjects who had achieved response to GLYX-13 at some visit were assigned to weekly or biweekly dosing based on time to relapse during placebo administration and randomized to continue receiving GLYX-13 or placebo (randomized withdrawal) for a subsequent 6 weeks of dosing. At the end of the randomized withdrawal period, subjects received placebo injections for 4 weeks. Subjects were blind to the treatments. Third party evaluators blind to treatment and protocol were utilized. Treatment dose and interval were calculated by an interactive web-based response system based on a mathematical algorithm; site personnel were blinded to treatment.

[4] = tested on: long-term potentiation (LTP); assay: Long-term potentiation (LTP) after single or multiple bi-weekly doses (FIG. 3)
[5] = end of randomized withdrawal period, biweekly doses

With `C[C@@H]([C@@H](O)c1ccc(O)cc1)N1CCC(O)(c2ccccc2)CC1` [CPC-101,606] as the compound, how does the “change in Hamilton Depression Rating Score” value [1] read?
Its value is “significant reductions”.

And the side effects [1]?
Its side effects is “reportedly severe”.

What does the source list for `C[C@@H](O)[C@H](N)C(=O)N1CCC[C@H]1C(=O)N1CCC[C@H]1C(=O)N[C@H](C(N)=O)[C@@H](C)O` [GLYX-13] (H-TPPT-NH2)?
psychotomimetic side effects ([2]; compared with other drugs that target the NMDA receptor): lack the pyschotomimetic side effects; antidepressant activity ([2]; in vivo): rapid-acting, robust, and sustained antidepressant activity; improvements on HDRS scale during the rest period (randomized withdrawal) ([3]; FIG. 1, compared with the induction (stabilization) period): generally maintained; improvements on Bech-6 scale during the rest period (randomized withdrawal) ([3]; FIG. 4, compared with the induction (stabilization) period): generally maintained; improvements on CGI-S scale during the rest period ([3]; FIG. 5, Week 7 and Week 13): generally maintained; subjects that relapsed more slowly ([3]; assigned to biweekly dosing in the randomized withdrawal period): 33%; responders that relapsed within 2 weeks following cessation of GLYX-13 ([3]; assigned to weekly dosing in the randomized withdrawal period): Approximately 67%; responders that relapsed quickly during early treatment ([3]; early treatment): About two-thirds; responders that relapsed slowly, even during early treatment ([3]; early treatment): About one-third; reduction of CGI-I score ([3]; end of randomized withdrawal period, 5 mg/kg IV weekly dose group): 2.5 ± 0.14; percent of subjects that achieved remission ([3]; end of randomized withdrawal period, 5 mg/kg weekly group vs biweekly dose groups): not statistically different from the biweekly dose groups; reduction of CGI-I score ([3]; end of randomized withdrawal period, 10 mg/kg IV group): 1.6±0.15; subjects that reached remission (HDRS score <=7) ([3]; end of randomized withdrawal period, 10 mg/kg weekly): 42%; subjects that achieved remission (HDRS score <=7) [3, 5]: 45%; subjects that achieved response [3, 5]: 65%; reduction of CGI-I score ([3]; end of randomized withdrawal period, biweekly groups): 2.5±0.12; HDRS-17 score in responders ([3]; following 6 weeks of dosing, baseline 23.5±0.34, mean±S.E.M.): 10.3±0.65; time after withdrawal of GLYX-13 without return of HDRS-17 score toward baseline ([3]; following 6 weeks of dosing, placebo thereafter): up to 10 weeks; efficacy following forced relapse ([3]; repeated crossover GLYX-13 / placebo (FIG. 6)): Efficacy was reestablished following forced relapse; side effects with repeated dosing ([3]; repeated dosing): without significant side effect; tolerance with repeated dosing ([3]; repeated dosing): no tolerance apparent; ultimate responders that showed response after one dose ([3]; stabilization phase, 5 or 10 mg/kg, after one dose): ~65%; ultimate responders that showed response after three doses ([3]; stabilization phase, after three doses): ~85%; ultimate responders that showed response after two doses ([3]; stabilization phase, after two doses): ~72%; effect on long-term potentiation (LTP) ([4]; 24 hours and one week following a single dose): enhances long-term potentiation; effect on long-term potentiation (LTP) ([4]; following multiple bi-weekly doses): persistently enhances LTP

For `CNC1(c2ccccc2Cl)CCCCC1=O` (stereo not drawn) [ketamine], which “change in Hamilton Depression Rating Score” value [1] is on record?
The value was “significant reductions”.

What about the side effects [1] of the same compound?
Its side effects is “reportedly severe”.
